Measurements from patent publication US9936701B2, “Herbicidal compounds” (Syngenta Participations AG, priority 2013, dated 2018).

Experiments:
[1] = tested on: a variety of test species; assay: Post-emergence herbicidal activity (glasshouse, sprayed after 8 days cultivation, evaluated after 13 days); format: in vivo; set-up: key: 5=total damage to plant; 0=no damage to plant; conditions: rate 1000 g/Ha, scale 0-5
Experimental: (§1) Seeds of a variety of test species were sown in standard soil in pots. After 8 days cultivation (post-emergence) under controlled conditions in a glasshouse (at 24/16° C., day/night; 14 hours light; 65% humidity), the plants were sprayed with an aqueous spray solution derived from the formulation of the technical active ingredient in acetone/water (50:50) solution containing 0.5% Tween 20 (polyoxyethelyene sorbitan monolaurate, CAS RN 9005-64-5). The test plants were then grown in a glasshouse under controlled conditions (at 24/16° C., day/night; 14 hours light; 65% humidity) and watered twice daily. After 13 days, the test was evaluated (5=total damage to plant; 0=no damage to plant).

[2] = tested on: a variety of test species; assay: Pre-emergence herbicidal activity (glasshouse, sprayed one day after sowing, evaluated after 13 days); format: in vivo; set-up: key: 5=total damage to plant; 0=no damage to plant; conditions: application pre-emergence, rate 1000 g/Ha, scale 0-5
Experimental: as §1, with “After” for “After 8 days”, “for one day (pre-emergence)” for “(post-emergence)”

CC1=C(Br)C(=O)N(c2cc(C(C)(C)C)on2)C1O (stereo not drawn) [A1]
ABUTH (Abutilon theophrasti) damage score, application post-emergence [1]: 5 | ALOMY (Alopecurus myosuroides) damage score, application post-emergence [1]: 5 | AMARE (Amaranthus retroflexus) damage score, application post-emergence [1]: 5 | ECHCG (Echinochloa crus-galli) damage score, application post-emergence [1]: 5 | SETFA (Setaria faberi) damage score, application post-emergence [1]: 5 | ZEAMX (Zea mays) damage score, application post-emergence [1]: 4 | Pre-emergence herbicidal damage score, ABUTH [2]: 5 | Pre-emergence herbicidal damage score, ALOMY [2]: 2 | Pre-emergence herbicidal damage score, AMARE [2]: 5 | Pre-emergence herbicidal damage score, ECHCG [2]: 4 | Pre-emergence herbicidal damage score, SETFA [2]: 5 | Pre-emergence herbicidal damage score, ZEAMX [2]: 1

CC1=C(Br)C(=O)N(c2cc(C)on2)C1O (stereo not drawn) [A3]
ABUTH (Abutilon theophrasti) damage score, application post-emergence [1]: 5 | ALOMY (Alopecurus myosuroides) damage score, application post-emergence [1]: 4 | AMARE (Amaranthus retroflexus) damage score, application post-emergence [1]: 5 | ECHCG (Echinochloa crus-galli) damage score, application post-emergence [1]: 5 | SETFA (Setaria faberi) damage score, application post-emergence [1]: 5 | ZEAMX (Zea mays) damage score, application post-emergence [1]: 3 | Pre-emergence herbicidal damage score, ABUTH [2]: 5 | Pre-emergence herbicidal damage score, ALOMY [2]: 3 | Pre-emergence herbicidal damage score, AMARE [2]: 5 | Pre-emergence herbicidal damage score, ECHCG [2]: 3 | Pre-emergence herbicidal damage score, SETFA [2]: 5 | Pre-emergence herbicidal damage score, ZEAMX [2]: 2

CC1=C(Cl)C(=O)N(c2cc(C)on2)C1O (stereo not drawn) [A4]
ABUTH (Abutilon theophrasti) damage score, application post-emergence [1]: 5 | ALOMY (Alopecurus myosuroides) damage score, application post-emergence [1]: 4 | AMARE (Amaranthus retroflexus) damage score, application post-emergence [1]: 5 | ECHCG (Echinochloa crus-galli) damage score, application post-emergence [1]: 5 | SETFA (Setaria faberi) damage score, application post-emergence [1]: 5 | ZEAMX (Zea mays) damage score, application post-emergence [1]: 3 | Pre-emergence herbicidal damage score, ABUTH [2]: 5 | Pre-emergence herbicidal damage score, ALOMY [2]: 3 | Pre-emergence herbicidal damage score, AMARE [2]: 5 | Pre-emergence herbicidal damage score, ECHCG [2]: 4 | Pre-emergence herbicidal damage score, SETFA [2]: 5 | Pre-emergence herbicidal damage score, ZEAMX [2]: 2

CC1=C(Br)C(=O)N(c2cc(C(F)(F)F)on2)C1O (stereo not drawn) [A6]
ABUTH (Abutilon theophrasti) damage score, application post-emergence [1]: 4 | ALOMY (Alopecurus myosuroides) damage score, application post-emergence [1]: 2 | AMARE (Amaranthus retroflexus) damage score, application post-emergence [1]: 4 | ECHCG (Echinochloa crus-galli) damage score, application post-emergence [1]: 3 | SETFA (Setaria faberi) damage score, application post-emergence [1]: 2 | ZEAMX (Zea mays) damage score, application post-emergence [1]: 0 | Pre-emergence herbicidal damage score, ABUTH [2]: 0 | Pre-emergence herbicidal damage score, ALOMY [2]: 1 | Pre-emergence herbicidal damage score, AMARE [2]: 0 | Pre-emergence herbicidal damage score, ECHCG [2]: 1 | Pre-emergence herbicidal damage score, SETFA [2]: 1 | Pre-emergence herbicidal damage score, ZEAMX [2]: 0

COCC(C)(C)c1cc(N2C(=O)C(Cl)=C(C)C2O)no1 (stereo not drawn) [A7]
ABUTH (Abutilon theophrasti) damage score, application post-emergence [1]: 5 | ALOMY (Alopecurus myosuroides) damage score, application post-emergence [1]: 5 | AMARE (Amaranthus retroflexus) damage score, application post-emergence [1]: 4 | ECHCG (Echinochloa crus-galli) damage score, application post-emergence [1]: 5 | SETFA (Setaria faberi) damage score, application post-emergence [1]: 5 | ZEAMX (Zea mays) damage score, application post-emergence [1]: 5 | Pre-emergence herbicidal damage score, ABUTH [2]: 5 | Pre-emergence herbicidal damage score, ALOMY [2]: 3 | Pre-emergence herbicidal damage score, AMARE [2]: 5 | Pre-emergence herbicidal damage score, ECHCG [2]: 4 | Pre-emergence herbicidal damage score, SETFA [2]: 4 | Pre-emergence herbicidal damage score, ZEAMX [2]: 2

COCC(C)(C)c1cc(N2C(=O)C(Br)=C(C)C2O)no1 (stereo not drawn) [A8]
ABUTH (Abutilon theophrasti) damage score, application post-emergence [1]: 5 | ALOMY (Alopecurus myosuroides) damage score, application post-emergence [1]: 5 | AMARE (Amaranthus retroflexus) damage score, application post-emergence [1]: 3 | ECHCG (Echinochloa crus-galli) damage score, application post-emergence [1]: 5 | SETFA (Setaria faberi) damage score, application post-emergence [1]: 5 | ZEAMX (Zea mays) damage score, application post-emergence [1]: 3 | Pre-emergence herbicidal damage score, ABUTH [2]: 5 | Pre-emergence herbicidal damage score, ALOMY [2]: 3 | Pre-emergence herbicidal damage score, AMARE [2]: 5 | Pre-emergence herbicidal damage score, ECHCG [2]: 4 | Pre-emergence herbicidal damage score, SETFA [2]: 4 | Pre-emergence herbicidal damage score, ZEAMX [2]: 1

CC1=C(Cl)C(=O)N(c2cc(C(C)(C)C)on2)[C@H]1O [A9]
ABUTH (Abutilon theophrasti) damage score, application post-emergence [1]: 5 | ALOMY (Alopecurus myosuroides) damage score, application post-emergence [1]: 4 | AMARE (Amaranthus retroflexus) damage score, application post-emergence [1]: 5 | ECHCG (Echinochloa crus-galli) damage score, application post-emergence [1]: 5 | SETFA (Setaria faberi) damage score, application post-emergence [1]: 5 | ZEAMX (Zea mays) damage score, application post-emergence [1]: 5

CC1=C(Cl)C(=O)N(c2cc(C(C)(C)C)on2)[C@H]1O [A10]
AMARE (Amaranthus retroflexus) damage score, application post-emergence [1]: 5 | ECHCG (Echinochloa crus-galli) damage score, application post-emergence [1]: 5 | SETFA (Setaria faberi) damage score, application post-emergence [1]: 5

CCC1=C(I)C(=O)N(c2cc(C(C)(C)C)on2)C1O (stereo not drawn) [A13]
ABUTH (Abutilon theophrasti) damage score, application post-emergence [1]: 5 | ALOMY (Alopecurus myosuroides) damage score, application post-emergence [1]: 5 | AMARE (Amaranthus retroflexus) damage score, application post-emergence [1]: 5 | ECHCG (Echinochloa crus-galli) damage score, application post-emergence [1]: 5 | SETFA (Setaria faberi) damage score, application post-emergence [1]: 5 | ZEAMX (Zea mays) damage score, application post-emergence [1]: 2 | Pre-emergence herbicidal damage score, ABUTH [2]: 3 | Pre-emergence herbicidal damage score, ALOMY [2]: 3 | Pre-emergence herbicidal damage score, AMARE [2]: 5 | Pre-emergence herbicidal damage score, ECHCG [2]: 3 | Pre-emergence herbicidal damage score, SETFA [2]: 3 | Pre-emergence herbicidal damage score, ZEAMX [2]: 1

CCC1=C(Br)C(=O)N(c2cc(C(C)(C)C)on2)C1O (stereo not drawn) [A14]
ABUTH (Abutilon theophrasti) damage score, application post-emergence [1]: 5 | ALOMY (Alopecurus myosuroides) damage score, application post-emergence [1]: 5 | AMARE (Amaranthus retroflexus) damage score, application post-emergence [1]: 4 | ECHCG (Echinochloa crus-galli) damage score, application post-emergence [1]: 5 | SETFA (Setaria faberi) damage score, application post-emergence [1]: 5 | ZEAMX (Zea mays) damage score, application post-emergence [1]: 4 | Pre-emergence herbicidal damage score, ABUTH [2]: 5 | Pre-emergence herbicidal damage score, ALOMY [2]: 3 | Pre-emergence herbicidal damage score, AMARE [2]: 5 | Pre-emergence herbicidal damage score, ECHCG [2]: 4 | Pre-emergence herbicidal damage score, SETFA [2]: 5 | Pre-emergence herbicidal damage score, ZEAMX [2]: 2

CC(C)(C)c1cc(N2C(=O)C(Cl)=C(C3CC3)C2O)no1 (stereo not drawn) [A15]
ABUTH (Abutilon theophrasti) damage score, application post-emergence [1]: 5 | ALOMY (Alopecurus myosuroides) damage score, application post-emergence [1]: 4 | AMARE (Amaranthus retroflexus) damage score, application post-emergence [1]: 5 | ECHCG (Echinochloa crus-galli) damage score, application post-emergence [1]: 5 | SETFA (Setaria faberi) damage score, application post-emergence [1]: 5 | ZEAMX (Zea mays) damage score, application post-emergence [1]: 3 | Pre-emergence herbicidal damage score, ABUTH [2]: 5 | Pre-emergence herbicidal damage score, ALOMY [2]: 2 | Pre-emergence herbicidal damage score, AMARE [2]: 5 | Pre-emergence herbicidal damage score, ECHCG [2]: 4 | Pre-emergence herbicidal damage score, SETFA [2]: 3 | Pre-emergence herbicidal damage score, ZEAMX [2]: 2

CCC1=C(Cl)C(=O)N(c2cc(C(C)(C)C)on2)C1O (stereo not drawn) [A16]
ABUTH (Abutilon theophrasti) damage score, application post-emergence [1]: 5 | ALOMY (Alopecurus myosuroides) damage score, application post-emergence [1]: 5 | AMARE (Amaranthus retroflexus) damage score, application post-emergence [1]: 5 | ECHCG (Echinochloa crus-galli) damage score, application post-emergence [1]: 5 | SETFA (Setaria faberi) damage score, application post-emergence [1]: 5 | ZEAMX (Zea mays) damage score, application post-emergence [1]: 5 | Pre-emergence herbicidal damage score, ABUTH [2]: 5 | Pre-emergence herbicidal damage score, ALOMY [2]: 4 | Pre-emergence herbicidal damage score, AMARE [2]: 5 | Pre-emergence herbicidal damage score, ECHCG [2]: 5 | Pre-emergence herbicidal damage score, SETFA [2]: 5 | Pre-emergence herbicidal damage score, ZEAMX [2]: 3
